Experimental findings from publication PMC11460631, “Inhibition of transient receptor potential vanilloid 3 channels by antimalarial hydroxychloroquine alleviates TRPV3-dependent dermatitis” (The Journal of Biological Chemistry, 2024) are described below.

The structures appear in SMILES notation. Residue numbers refer to the chain shown, from its start.

Experiment [1] has as its target T1, TRPV3 L670A + L591A double mutant (Homo sapiens, UniProt Q8NET8, L591A/L670A).
T1 construct: YFP or GFP; expressed in transfected cells; host or cells: HEK293T
T1 sequence (Q8NET8 1-790 L591A/L670A): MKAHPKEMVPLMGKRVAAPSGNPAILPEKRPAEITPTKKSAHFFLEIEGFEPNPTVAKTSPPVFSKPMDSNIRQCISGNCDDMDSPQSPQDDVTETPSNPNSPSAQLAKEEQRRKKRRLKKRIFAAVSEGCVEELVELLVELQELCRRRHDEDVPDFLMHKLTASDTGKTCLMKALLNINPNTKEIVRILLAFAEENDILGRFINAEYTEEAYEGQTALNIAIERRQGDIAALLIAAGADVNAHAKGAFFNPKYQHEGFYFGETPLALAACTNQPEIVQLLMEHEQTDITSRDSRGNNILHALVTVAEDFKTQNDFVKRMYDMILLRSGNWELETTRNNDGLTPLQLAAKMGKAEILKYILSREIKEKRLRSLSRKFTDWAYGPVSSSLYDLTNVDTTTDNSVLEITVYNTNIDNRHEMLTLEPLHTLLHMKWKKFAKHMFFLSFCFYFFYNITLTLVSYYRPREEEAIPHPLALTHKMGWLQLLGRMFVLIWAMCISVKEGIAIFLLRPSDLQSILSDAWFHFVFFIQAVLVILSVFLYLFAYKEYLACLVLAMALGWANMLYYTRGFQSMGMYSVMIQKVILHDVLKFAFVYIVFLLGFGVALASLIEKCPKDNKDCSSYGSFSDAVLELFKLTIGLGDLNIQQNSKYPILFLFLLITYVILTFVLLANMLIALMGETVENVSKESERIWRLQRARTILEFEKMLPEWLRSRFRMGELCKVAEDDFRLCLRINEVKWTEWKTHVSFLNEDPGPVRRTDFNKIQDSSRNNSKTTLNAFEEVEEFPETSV
As to the kind of experiment: Whole-cell recording of TRPV3 L591A/L670A double mutant. The note with it: L670A introduced to L591A mutant. The class given is cell-based. The text has this:
(§1) As we mentioned above, HCQ may act as a pore blocker of TRPV3. To probe the binding configuration of HCQ to TRPV3, we carried out molecular docking using Rosetta suite (https://rosettacommons.org) ([21]) and validated the docking models with point mutations in TRPV3 (Fig. 4A). […] Furthermore, when we introduced L670A to L591A mutant, we also observed a left shift on the concentration–response curve on this double mutant as compared to L591A mutant (Fig. 4H).
Figure 4 Residues of the pore domain are critical for HCQ inhibition on TRPV3.A, left panel, docking model of HCQ to the pore domain of TRPV3 structure (6uw4). Right panels, top view and side view of the HCQ-binding pocket. B-J, representative whole-cell recording of TRPV3 and mutants in response to 1 mM 2-APB, the mixture of 1 mM 2-APB and concentration gradients of HCQ with the holding potential of ± 80 mV. K, concentration–response curves of HCQ in WT TRPV3 and mutants (n = 3–5 cells). L, quantification of the inhibitory ratio of HCQ (100 μM) on WT, L591A, and N671Q. Data are presented as mean ± SEM (n = 3–6 cells); F (2, 10) = 8.115, p = 0.0081 by one-way ANOVA using Dunnett’s multiple comparisons test. ∗∗, p = 0.0070 WT versus L591A; ∗, p = 0.0100 WT versus N671Q. 2-APB, 2-aminoethoxydiphenylborate; HCQ, hydroxychloroquine; TRP, transient receptor potential; TRPV3, transient receptor potential vanilloid 3 channel. […]

The target in experiment [2] is T2, TRPV3 Y594 alanine mutation (Homo sapiens, UniProt Q8NET8, Y594A).
T2 construct: YFP or GFP; expressed in transfected cells; host or cells: HEK293T
T2 sequence (Q8NET8 1-790 Y594A): T1 sequence (Q8NET8 1-790 L591A/L670A) with A591L, Y594A, A670L
The experiment can be described thus: Whole-cell recording of TRPV3 Y594 alanine mutant. The format is cell-based. The note with it: 1 mM 2-APB, ± 80 mV.
Source text: as §1
Figure 4 Residues of the pore domain are critical for HCQ inhibition on TRPV3.A, left panel, docking model of HCQ to the pore domain of TRPV3 structure (6uw4). Right panels, top view and side view of the HCQ-binding pocket. B-J, representative whole-cell recording of TRPV3 and mutants in response to 1 mM 2-APB, the mixture of 1 mM 2-APB and concentration gradients of HCQ with the holding potential of ± 80 mV. K, concentration–response curves of HCQ in WT TRPV3 and mutants (n = 3–5 cells). L, quantification of the inhibitory ratio of HCQ (100 μM) on WT, L591A, and N671Q. […]
All data from whole-cell recordings were analyzed in Igor Pro (WaveMetrics). IC50 values were determined by fitting the Hill equation to concentration-response relationships. […]

In the case of `CCN(CCO)CCCC(C)Nc1ccnc2cc(Cl)ccc12` (centres unmarked) [HCQ, hydroxychloroquine], the “shift of concentration–response curve on double mutant as compared to L591A mutant” value in experiment [1] was “left shift”. Besides, half-maximal inhibition in experiment [2] (IC50) was put at 1.57 ± 0.08 µM.
